# Experimental data: patent US5491135A (priority 1993, dated 1996)
# Several values for one entry are separate records, joined by “and”; a condition that tells them apart may be missing. Identical values can stand only once. Entries after “also recorded” stand apart in the source; their conditions may differ. Like-named read-outs stand apart in the source and are kept apart here.
# Tests used:
# [1] = tested on: HCMV strain AD 169; experiment: Rabbit model of HCMV chorioretinitis (Example 5); format: in vivo, pigmented rabbit; conditions: for histology: preliminary
# Procedure: A total of 32 pigmented rabbits were used in this study. Animals were evaluated by slit lamp and indirect ophthalmoscopy to determine normal ocular morphology and lack of preexisting pathology. Animals were handled as follows:
# [1] On day 0, all rabbits were inoculated by mid-vitreal injection of 10^5 PFU HCMV strain AD 169 in 100 μl.
# [2] Animals were maintained in individual cages and developing chorioretinal HCMV disease was monitored daily. On day 2 PI, HCMV-inoculated animals were divided into 8 groups of 4 rabbits each with matched chorioretinal disease scores. The HCMV-infected rabbits received intravenous therapy as indicated below:
# Group #1--4 animals, intravenous injection of high dose experimental drug (50 mg/kg) daily from day 2 through 10 PI. A total of 9 IV injections.
# Group #3--4 animals, intravenous injection of low dose experimental drug (20 mg/kg) daily from day 2 through 10 PI. A total of 9 IV injections.
# Group #4--4 animals, intravenous injection of high dose experimental drug (50 mg/kg) daily from day 2 through 10 PI (a total of 9 IV injections) plus high dose DHPG 10 mg/kg/day in 2 divided doses from day 2 through 10 PI (a total of 18 IV injections).
# Group #5--4 animals, intravenous injection of high dose experimental drug (50 mg/kg) daily from day 2 through 10 PI (a total of 9 IV injections) plus low dose DHPG 5 mg/kg/day in 2 divided doses from day 2 through 10 PI (a total of 18 IV injections).
# Group #6--4 animals, intravenous injection of low dose experimental drug (20 mg/kg) daily from day 2 through 10 PI (a total of 9 IV injections) plus low dose DHPG 5 mg/kg/day in 2 divided doses from day 2 through 10 PI (a total of 18 IV injections).
# Group #7--4 animals, intravenous injection of DHPG 10 mg/kg/day in 2 divided doses from day 2 through day 10 PI. A total of 18 IV injections.
# Group #8--4 animals, intravenous injection of sterile saline on days 2 through 10 PI.
# [3] All animals received daily indirect ophthalmoscopic examinations to evaluate clinical HCMV disease progression (From days 2 through 10 PI). The indirect ophthalmoscopic examinations were performed independently by two readers who were masked as to the therapy that the rabbits were receiving.
# [4] All animals were sacrificed on day 12 PI. Chorioretina and iris tissues and vitreous samples will be removed and processed for HCMV recovery by cell sonicate assay on Hs68 cell monolayers. Selected ocular and lung tissue samples were processed for histochemistry to evaluate HCMV-induced ocular pathology in treated and non-treated groups.
# The clinical, virus recovery and histological efficacy results for all drug-treated intravenous therapy groups were correlated with each other and with the placebo therapy group.
# [2] = in vitro
# [3] = tested on: respiratory syncytial virus (RSV); experiment: RSV infection in cotton rats, lung titre; format: in vivo, cotton rat; conditions: for RSV lung titre: individual animal
# Description: 1. 50 to 100 g cotton rats of either sex inoculated i.n. with RS A2 (pool 8-28-92) on day 0.
# 2. On day +1 animals were given placebo or PALA as follows:
# 3. All animals killed on day +4 and their lungs tested for RSV levels.
# [4] = tested on: Paramyxo-3; experiment: In vitro antiviral assay; format: cell-based
# [5] = Cytotoxicity in Hep-2 cells; conditions: human
# [6] = tested on: L-aspartic acid transcarbamylase (ATCase); conditions: cited from earlier work
# [7] = Cytotoxicity in human foreskin fibroblasts; conditions: hff cells
# [8] = tested on: Varicella; experiment: In vitro antiviral assay; format: cell-based; conditions: Vero
# [9] = tested on: vaccinia virus; conditions: for Vaccinia Lesion Score: per monkey
# [10] = tested on: herpes virus-2; experiment: In vitro antiviral assay; format: cell-based
# [11] = tested on: Sandfly fever virus; experiment: microbe, parasite or virus in culture; conditions: sandfly fever Sicilian virus, Vero
# [12] = tested on: duck hepatitis B virus (DHBV); experiment: Duck hepatitis B (DHBV) in primary duck hepatocyte culture; format: cell-based
# Procedure: Using the duck hepatitis model (DHBV), primary duck hepatocyte cells were treated with various concentrations of PALA (disodium salt) and evaluated for cytopathic effect. In addition, viral DNA replication was assessed using "slot" dot blots. […] These experiments were performed three times with confirmatory results.
# [13] = tested on: Vero cells; conditions: uninfected
# [14] = tested on: Yellow fever virus; conditions: Vero
# [15] = tested on: Venezuelan equine encephalitis virus; conditions: Vero; 50% inhibition
# [16] = tested on: Yellow fever virus; experiment: microbe, parasite or virus in culture; conditions: Vero
# [17] = PALA 50 daily, DHPG 10/day, or PALA 50 + DHPG 10 or 5 mg/kg i.v.
# [18] = PALA 50 mg/kg every other day i.v.
# [19] = PALA 20 daily, alone or + DHPG 5 mg/kg i.v.
# [20] = day 8, PALA 125 mg/kg day 1 & 7
# [21] = day 10, PALA 125 mg/kg day 1 & 7
# [22] = day 10, PALA 50, rifampicin 10 mg/kg/d or both
# [23] = day 13, PALA 125 mg/kg day 1 & 7
# [24] = day 13, PALA 50, rifampicin 10 mg/kg/d or both
smiles,measurement,setting,value
"Nc1nc(O)c2ncn(COC(CO)CO)c2n1 [DHPG, reference compound]",HCMV recovery day 12 PI,[1]; [17],No HCMV was recovered
same,clinical efficacy,[1]; [17],did reduce the development of HCMV chorioretinal infection and disease; also recorded: effective in reducing the severity of HCMV-induced chorioretinal disease
same,lung appearance at sacrifice,[1]; [17],the lungs appeared normal
same,vitreitis severity,[1]; [17],moderate levels from day 4 through day 10 PI
same,eyes with stabilized chorioretinal disease,"[1]; by day 6-7 PI, DHPG 10 mg/kg/day",70%
O=C(O)C[C@H](NC(=O)CP(=O)(O)O)C(=O)O [PALA],CC50,[2]; uninfected vero cells,> 320 µg/mL
same,CC50,[2]; vero cells,> 320 µg/mL
same,"RSV lung titre, mean (SD)",[3]; PALA 3 mg/kg/day,3.3 (0.3) LOG10 /G Lung
same,RSV lung titre,[3]; PALA 3 mg/kg,3.9 LOG10 and 3.5 LOG10 and 2.9 LOG10 and 3.0 LOG10
same,"RSV lung titre, mean (SD)",[3]; PALA 10 mg/kg/day,2.8 (0.5) LOG10 /G Lung
same,decrease of viral titre over control,[3]; PALA 10 mg/kg/day,1 log10
same,RSV lung titre,[3]; PALA 10 mg/kg,2.4 LOG10 and 2.9 LOG10 and 2.5 LOG10 and 3.5 LOG10
same,efficacy against RSV,[3]; i.p.,more effective than ribavirin or combinational therapy; also recorded: statistically significant efficacy; also recorded: statistically better than ribavirin; also recorded: more effective as a single agent therapy in vivo against respiratory syncytial virus than ribavirin
same,IC50,[4]; HEp-2,10 µg/mL
same,TI,[4]; Hep-2,32.0
same,CC50,[5],> 320 µg/mL
same,"Ka, avidity relative to carbamyl phosphate",[6],1000 ×
same,CC50,[7],> 320 µg/mL
same,IC50,[8],10 µg/mL
same,TI,[8],32.0
same,histology,[1]; PALA 20 mg/kg daily i.v.,diffuse disease with moderate to severe chorioretinal disease
same,histology,[1]; PALA 50 mg/kg daily i.v.,moderate areas of chorioretinal HCMV disease restricted to the inner retina
same,HCMV recovery day 12 PI,[1]; [18],No HCMV was recovered
same,clinical efficacy,[1]; [18],marginally effective
same,lung appearance at sacrifice,[1]; [18],clear and non congested
same,optic nerve head edema and redness,[1]; [18],severe on days 3-4 PI
same,vitreitis severity,[1]; [18],moderate to severe levels within 3-4 days post inoculation
same,HCMV recovery day 12 PI,[1]; [19],No HCMV was recovered
same,clinical efficacy,[1]; [19],not effective
same,HCMV recovery day 12 PI,[1]; [17],No HCMV was recovered
same,clinical efficacy,[1]; [17],only marginally effective; also recorded: not effective
same,lung appearance at sacrifice,[1]; [17],clear and non congested
same,vitreitis severity,[1]; [17],moderate levels within 3-4 days post inoculation
same,interstitial pneumonitis,"[1]; rabbit, in vivo",prevented interstitial pneumonitis
same,gross pathology,[9]; PALA 125 mg/kg i.v. bolus,dark red discoloration of the liver
same,lesion development,"[9]; PALA 125 mg/kg, days 1 and 7",greater than what was seen in monkeys treated daily with PALA at a lower dose
same,virus titers in skin,"[9]; PALA 125 mg/kg, days 1 and 7",Higher titers
same,lesion development,"[9]; PALA 50, rifampicin 10 or both, mg/kg/day i.v.",effective in reducing lesion development and size
same,Weight,"[9]; day 0, PALA 125 mg/kg day 1 & 7",3.2 kg and 3.4 kg and 4.4 kg
same,Weight,"[9]; day 0, PALA 50, rifampicin 10 mg/kg/d or both",2.4 kg and 3.4 kg and 2.6 kg
same,"Vaccinia Lesion Score, group mean","[9]; day 3, PALA 125 mg/kg day 1 & 7",0.5
same,"Vaccinia Lesion Score, group mean","[9]; day 3, PALA 50, rifampicin 10 mg/kg/d or both",0.1
same,"Vaccinia Lesion Score, group mean","[9]; day 6, PALA 125 mg/kg day 1 & 7",0.7
same,"Vaccinia Lesion Score, group mean","[9]; day 6, PALA 50, rifampicin 10 mg/kg/d or both",0.6
same,"Vaccinia Lesion Score, group mean","[9]; day 7, PALA 125 mg/kg day 1 & 7",0.9
same,"Vaccinia Lesion Score, group mean","[9]; day 7, PALA 50, rifampicin 10 mg/kg/d or both",0.5
same,"Vaccinia Lesion Score, group mean",[9]; [20],1.3
same,Vaccinia Lesion Score,[9]; [20],0.7 and 1.8
same,"Vaccinia Lesion Score, group mean","[9]; day 8, PALA 50, rifampicin 10 mg/kg/d or both",0.5
same,"Vaccinia Lesion Score, group mean","[9]; day 9, PALA 125 mg/kg day 1 & 7",1.2
same,"Vaccinia Lesion Score, group mean","[9]; day 9, PALA 50, rifampicin 10 mg/kg/d or both",0.3
same,"Vaccinia Lesion Score, group mean",[9]; [21],0
same,Vaccinia Lesion Score,[9]; [21],0
same,"Vaccinia Lesion Score, group mean",[9]; [22],0
same,Weight,[9]; [22],2.2 kg and 3.2 kg and 2.4 kg
same,Vaccinia Lesion Score,[9]; [22],0
same,"Vaccinia Lesion Score, group mean",[9]; [23],0.5
same,Vaccinia Lesion Score,[9]; [23],0.3 and 0.7
same,"Vaccinia Lesion Score, group mean",[9]; [24],0
same,Vaccinia Lesion Score,[9]; [24],0
same,Weight,"[9]; day 14, PALA 125 mg/kg day 1 & 7",3.2 kg and 4.4 kg
same,Weight,"[9]; day 14, PALA 50, rifampicin 10 mg/kg/d or both",2.0 kg and 3.2 kg and 2.4 kg
same,Weight,"[9]; day 21, PALA 125 mg/kg day 1 & 7",3.4 kg and 4.2 kg
same,Weight,"[9]; day 21, PALA 50, rifampicin 10 mg/kg/d or both",2.0 kg and 3.4 kg and 2.6 kg
same,signs of toxicity,[9]; except one monkey at PALA 125 mg/kg bolus,No appreciable signs of toxicity
same,Titer of vaccinia virus in skin biopsy,"[9]; head prints day 6, PALA 125 mg/kg day 1 & 7",1.3 × 10^5 PFU/ml and 1.8 × 10^10 PFU/ml
same,inhibitory activity,[10],no inhibitory activity
same,IC50,[11],20.9 µg/mL
same,inhibition at 0.5 µM,"[12]; Duck hepatitis B virus, Hepatocyte",95%
same,toxicity,[12]; high concentrations,little or no toxicity
same,TC50,[13],> 320 µg/mL
same,IC50,[14],13.4 µg/mL
same,TI (TC50/IC50),[14]; 50% inhibition,> 19.22 and > 23.82
same,TI(95),[14]; 95% inhibition,> 10.68 and > 10.38
same,TI (TC50/IC50),[15],0.00
same,IC50,[16],16.6 µg/mL
